Reference: US9724329B2, “Stimulating immune response” (Peter MacCallum Cancer Institute, priority 2010, dated 2017)
Entries after “also recorded” stand apart in the source; their conditions may differ.

How the values were obtained:
[1] = system: K562 cells (natural killer (NK) only sensitive cell line); assay: NK-cell cytotoxicity: drug-treated PBMC as effectors in chromium release assay; assay type: cell-based, human; details: for NK cell function / cytotoxicity (K562 lysis): 10 uM, PBMC cultured 3 days, versus untreated
Procedure: (§1) FIG. 10. […] (b) The anti-inflammatory potential of NMP was assessed using LPS-treated CD14+ monocytes that were isolated from healthy donor PBMC. Monocytes were treated with 10 uM NMP or lenalidomide (LEN) and 1 ug/mL LPS for 18 hr or left untreated (Unt), then supernatants were analyzed via cytokine bead array for TNFα and IL-6. (c) The polarizing effect of NMP on cytokine production from PBMC was assessed from supernatants collected after 3d drug treatment. Levels of IL-2, IL-4 and IL-10 were analyzed by cytokine bead array. (d) NK-cell cytotoxicity was assessed by culturing healthy donor PBMC in the presence of 10 uM NMP, 10 uM lenalidomide, or as media alone (Unt). Cells harvested after 3d were washed and used as effectors in chromium release assays against the NK-only sensitive cell line, K562 at an effector ratio of 50:1. […] Data are presented as mean+/−SEM. NS, not statistically significant. (p≧0.05), *p<0.05
Healthy donor peripheral blood mononuclear cells (PBMC) were cultured for 3 days in RPMI-1640 and 10% FCS in the presence of 10 uM NMP, 10 uM Len (positive control) or no drugs. After 3 days the cells were harvested and used as effectors in a standard 4 hr chromium release assay, using K562 as targets (natural killer (NK) only sensitive cell line) (n=3).
BEZ235 and lenalidomide were dissolved in dimethylsulfoxide (DMSO) as 10 mM stock solutions and further diluted in media to final concentrations as specified in figure legends. The final concentration of DMSO was not greater than 0.1% v/v in any assay.

transplanted Vk*MYC MM = assay: Transplanted Vk*MYC myeloma model in mice: survival, paraproteinaemia (M-spike), serum immunoglobulin; assay type: in vivo, mouse; details: for efficacy against Vk*MYC MM in vivo (progression): FIG. 8d, lenalidomide 100 mg/kg, NMP, saline control
Procedure: Sublethally (6Gy) irradiated C57BL/6 mice were injected with 1×10e5 Vk*myc splenocytes derived from myelomatous mice by intravenous injection. Recipient mice were monitored by serum protein electophoresis for development of monoclonal paraproteinaemia (M-spike). The monoclonal paraprotein is a sensitive and specific marker of myeloma burden, as this protein is only produced by myeloma cells. Paraprotein estimation is a standard clinical parameter by which myeloma is monitored in human patients. Once detected, M-spikes were quantitated by densitometry (expressed as % of total serum protein). […] Mice were monitored by weekly M-spike quantification and for clinically apparent disease. Mice developing distress due to disease progression (e.g. hind limb paralysis, splenic rupture) were euthanased.
All mouse experiments were carried out in accordance with ethical guidelines determined by the Peter Mac Animal Experimental Ethics Committee. For in vivo assessment of NMP efficacy, treatment studies were performed on mice bearing transplanted Vk*MYC myeloma^2. […] To exclude the potential for adoptive transfer of immune cells with grafts into Rag2^−/−cγ^−/− mice and matched C57BL/6 recipients (FIG. 8f), freshly sorted Vk*MYC MM cells (40,000 per mouse) were used for this experiment. The onset of transplanted disease was confirmed by serum protein electrophoresis; those mice manifesting M-protein >2% of total serum protein (FIG. 8a) or >5% (remaining figures) were selected for treatment.
All dosing was performed by oral gavage using freshly prepared drug solutions or suspensions. Mice were dosed with NMP according to standard practice for drug administration using NMP/PEG as a vehicle^1. NMP (Sigma Aldrich, NSW, AUS) was diluted 1 in 10 v/v (FIG. 8a) or 1 in 5 v/v (remaining figures) in PEG300 (Sigma Aldrich, NSW, AUS) and administered by oral gavage to a final volume of 1 uL NMP per gram mouse weight.
BEZ235 was kindly provided by Novartis. According to Novartis' recommendations, BEZ235 was dissolved in NMP by heating briefly to 60° C. and further diluting 1 in 10 v/v in PEG300. Alternatively BEZ235 was suspended in 0.5% methylcellulose (MC) solution and mixed thoroughly prior to administration.
Lenalidomide was kindly provided by Celgene. Lenalidomide was suspended in 0.9% saline solution immediately prior to oral gavage at a dose of 100 mg/kg.
Treatment was continued daily for the first month, then weekdays only for the remainder of the indicated treatment period. Mice were culled with the development of features of overt myeloma, including permanent hind-limb paralysis and disseminated extramedullary disease.
Freshly obtained mouse serum was analyzed for paraproteinemia on the Sebia Hydrasys® semi-automated agarose gel electrophoresis system (Sebia, Norcross, Ga., USA). Serum M-spike densitometry quantification was performed using Phoresis software (release 4.7.2, Sebia) by a biochemist blinded to the nature of group allocation. M-spike results are expressed as a percentage of total serum protein.
For correlative quantitative immunoglobulin estimates, thawed aliquots of serum were batched for sandwich enzyme-linked immunosorbent assay (ELISA) using Igλ or IgK capture antibodies (Southern Biotech, AL, USA) and biotin/streptavidin detection by horseradish peroxidase/tetramethylbenzidine dihydrochloride substrate standardized against IgMK/IgMl isotype controls (Biolegend, CA, USA). ELISA plates were read using a VersaMax™ microplate reader and analyzed by SoftMax Pro software v 5.4 (Molecular Devices, CA, USA).

[2] = rats, long-term exposure via inhalation or diet; cited from earlier work
[3] = in vivo; cited from earlier work
[4] = rats, in the diet; cited from earlier work
PBMC [5] = assay: Direct cytotoxicity, Annexin V and 7aad flow cytometry, PBMC; assay type: cell-based, human; details: NMP 0 uM, 1 uM, 10 uM, 100 uM or 10 mM, 48 hours
Procedure: (§2) PBMC and a myeloma cell line (U266) were cultured in RPMI-1640 with 10% FCS in the presence of NMP (0 uM, 1 uM, 10 uM, 100 uM or 10 mM) for 48 hours. The cells were stained with viability markers (Annexin V and 7aad) and analyzed on the flow cytometer (n=2).

PBMC [6] = assay: Immune cell subset composition of cultured PBMC; assay type: cell-based, human; details: 10 uM, 3 days
Procedure: PBMC were cultured in RPMI-1640 and 10% FCS for 3 days in the presence of either 10 uM NMP, 10 uM Len or no drugs. At day 3 the cells were harvested and stained for T cell markers (CD4 and CD8), NK markers (CD3−, CD56) and regulatory T cells (CD3, CD4, CD25, CD127low). For controls, day 0 PBMC were stained to assess changes in cellular subsets after 3 days (n=3).

Vk*MYC MM bearing mice = assay: Serum cytokines in MM bearing mice; assay type: in vivo, mouse; details: FIG. 8e; one week of treatment, versus SAL
Procedure: (§3) Supernatants from cultured cells or serum from VK*MYC mice were used to assess the level of individual cytokines (as specified in the methods and results section) via the Luminex cytokine bead array system. The assay was conducted according to the manufacturer instructions. Briefly, pre-mixed beads were added to 25 uL of undiluted supernatant/serum, followed by the addition of detection antibodies and streptavidin in 96 well filtered-membrane plates. The plates were run on the Luminex 200 instrument and data analysed with the xPONENT software.
For cytokine assessment in MM bearing mice, mice were treated daily for 7d with NMP or SAL, and serum collected 4 hours after the last dose.

CD14+ monocytes = assay: Inflammatory cytokine secretion by LPS-treated CD14+ monocytes; assay type: cell-based, human; details: 10 uM; for IL-6 secretion / TNFα secretion: FIG. 10b, 1 ug/mL LPS, 18 hr
Procedure: as §1
CD14+ monocytes were sorted via the Dynal bead kit from PBMC. The cells were then treated with LPS to induce cytokine production, and cultured overnight in the presence of 10 uM NMP, 10 uM Len or no drugs. As background controls, non LPS stimulated monocytes were used. The supernatants were harvested and IL-1beta, GM-CSF, IL-6 and TNF-alpha analyzed via the Luminex beady array assay (n=3).
as §3

U266 cells = assay: Expression of NKG2D and DNAM-1 ligands on myeloma cells (flow cytometry); assay type: cell-based, human; details: 10 uM, 48 hrs; FIG. 10f
[7] = system: LPS induced inflammation and shock; assay: LPS challenge, serum cytokines in non-tumor bearing mice; assay type: in vivo, mouse; details: FIG. 8c; serum 4 hours after LPS; NMP 1 uL/g po, lenalidomide 2 x 100 mg/kg po
Procedure: as §3
For LPS challenges, non-tumor bearing C57BL/6 mice were administered LPS (E. Coli 0127:B8, gamma-irradiated; Sigma) 1 mg/30 g mouse weight by intraperitoneal injection. NMP (1 uL/g mouse weight in PEG, po) was administered 4 hours prior to LPS. Lenalidomide was administered in 2 doses of 100 mg/kg po 24 and 4 hours prior to LPS. Serum was obtained 4 hours after LPS challenge and analyzed for cytokine content by bead array.

[8] = bacterial and mammalian tests; cited from earlier work
[9] = system: peripheral blood mononuclear cells (PBMC); assay: Cytokine production of PBMC (cytokine bead array); assay type: cell-based, human; details: for cytokine secretion profile (Th): FIG. 10c, 3d drug treatment
Procedure: PBMC were cultured for 3 days in RPMI-1640 and 10% FCS in the presence of 10 uM NMP, 10 uM Len or no drugs. After 3 days, supernatants were collected and a cytokine bead array performed via the Luminex instrument to analyze changes in IL-2, IL-4 and IL-10 production (n=3).
as §3

myeloma cell line (U266) = assay: Direct cytotoxicity, Annexin V and 7aad flow cytometry, U266; assay type: cell-based, human; details: NMP 0 uM, 1 uM, 10 uM, 100 uM or 10 mM, 48 hours
Procedure: as §2

[10] = system: PI3K/mTOR phosphorylation targets; assay: PI3K/mTOR phosphorylation targets in vivo; details: in vivo (not shown)

Cn1c(=O)n(-c2ccc(C(C)(C)C#N)cc2)c2c3cc(-c4cnc5ccccc5c4)ccc3ncc21 [BEZ235, reference compound]
effect of co-treatment on NMP-induced NK-cell lysis ([1]; BEZ235 250 nM with NMP, FIG. 10e): inhibited; also recorded: downregulated
median survival (transplanted Vk*MYC MM; FIG. 8a, BEZ235 25 mg/kg/d concurrent with NMP/PEG, n=6): 42.5 days
effect on disease progression (transplanted Vk*MYC MM; FIG. 8a, BEZ235 in MC vehicle): minimal effect
median survival (transplanted Vk*MYC MM; FIG. 8a, BEZ235 in MC vehicle, n=8): 47.5 days
effect of concurrent administration on the therapeutic effect of NMP (transplanted Vk*MYC MM; FIG. 8a, BEZ235 with NMP/PEG): antagonized

CN1CCCC1=O [NMP, N-methylpyrrolidone]
carcinogenic effects [2]: no carcinogenic effects
oral LD50 [3]: 3600 to 7700 mg/kg
no-effect level (for a decrease in pup body weight) [4]: 160 mg/kg/day
direct cytotoxicity (AnnV+7aad+) (PBMC [5]): did not increase to any significant extent; also recorded: not cytotoxic
proportions of immune cell subtypes (CD4, CD8, NK, regulatory T cells) (PBMC [6]): no significant alteration; also recorded: without altering
serum IL-6 (Vk*MYC MM bearing mice): reductions
serum TNFα (Vk*MYC MM bearing mice): reductions
secretion of the four inflammatory cytokines (IL-1beta, GM-CSF, IL-6, TNF-alpha) (CD14+ monocytes; Example 6, FIG. 7, overnight, relative to LPS only control): not shown to demonstrate a statistically significant effect
IL-6 secretion (CD14+ monocytes): Statistically significant inhibition; also recorded: suppressed
TNFα secretion (CD14+ monocytes): Statistically significant inhibition; also recorded: suppressed
expression of NKG2D and DNAM-1 ligands (MIC-B, ULBP-1, ULBP-2 and CD155) (U266 cells): upregulated
NK cell function / cytotoxicity (K562 lysis) [1]: enhancement; also recorded: enhanced
IL-6 production following LPS challenge [7]: suppressed
TNFα serum levels following LPS challenge [7]: suppressed
genotoxicity [8]: no genotoxicity
IL4 production ([9]; 10 uM, 3 days): inhibit
IL10 production ([9]; 10 uM, 3 days): inhibit
cytokine secretion profile (Th) [9]: away from a Th-2 profile
median survival (transplanted Vk*MYC MM; Example 1, FIG. 1, C57BL/6, NMP/PEG 1:10 v/v, 10 uL per gram, daily oral, 60 days, control 46 days): 60 days
residual polyclonal Ig Lambda (L) (transplanted Vk*MYC MM; FIG. 8b): better maintained; also recorded: less suppressed
clonally secreted Ig Kappa (K) (transplanted Vk*MYC MM; FIG. 8b, NMP/PEG versus PEG alone or PBS): Suppression
NMP response in Rag2−/−cγ−/− knockout mice (transplanted Vk*MYC MM; FIG. 8f, immunodeficient mice lacking T, B or NK cells): No response
NMP response in wild type C57BL/6 mice (transplanted Vk*MYC MM; FIG. 8f, same Vk*MYC clone): only observed in wild type C57BL/6
efficacy against Vk*MYC MM in vivo (progression) (transplanted Vk*MYC MM): regressed
direct cytotoxicity (AnnV+7aad+) (myeloma cell line (U266)): did not increase to any significant extent; also recorded: not cytotoxic
effect on PI3K/mTOR phosphorylation targets [10]: did not detect any consistent effect

Nc1cccc2c1CN(C1CCC(=O)NC1=O)C2=O (stereo not shown) [Lenalidomide, reference compound]
proportions of immune cell subtypes (CD4, CD8, NK, regulatory T cells) (PBMC [6]): without altering
IL-6 secretion (CD14+ monocytes): suppressed
TNFα secretion (CD14+ monocytes): suppressed
expression of NKG2D and DNAM-1 ligands (MIC-B, ULBP-1, ULBP-2 and CD155) (U266 cells): a property not shared
NK cell function / cytotoxicity (K562 lysis) [1]: enhanced
IL-6 production following LPS challenge [7]: only NMP suppressed
TNFα serum levels following LPS challenge [7]: suppressed
IL-2 production ([9]; 10 uM, 3 days): without altering
cytokine secretion profile (Th) [9]: away from a Th-2 profile
efficacy against Vk*MYC MM in vivo (progression) (transplanted Vk*MYC MM): poor efficacy
efficacy against Vk*MYC MM in vivo (progression) (transplanted Vk*MYC MM; listed as lenalidomide): minimal effects
effect on PI3K/mTOR phosphorylation targets [10]: did not detect any consistent effect
